Results taken from patent US20250008983A1, “COMPOSITIONS CONTAINING PEROXYACIDS TO CONTROL PATHOGEN GROWTH IN ANIMAL FEED AND RELATED METHODS” (KEMIN INDUSTRIES, INC., priority 2023, published 2025).
Where two headings read alike, the source gives them in different places. Marks after values point to notes of the source that are not given here.

Experiments:
[1] = tested on: Enterobacteriaceae; type: cell-based
Protocol: Materials and Method. Naturally contaminated layer feed was collected, ground, and mixed well prior to weighing. The ground feed was weighed and separated into 15 different bags, each containing 300 g. The product/prototype was accurately weighed at the needed dosage and adjusted to a total volume of 5 mL prior to adding into the 300 g of feed with a syringe and needle. Product/prototype was added in batches (i.e., 2, 2, and 1 mL separately) and mixed after each addition. Five mL of sterile water was added into the feed and served as the control. The treated feed samples were homogenized after treatment and kept at 25° C. until the day of enumeration.
TEC of the 15 samples were studied over a period of 22 days with enumeration interval at time points 0, 1 and 22 days. The effect of peroxy acid was neutralized at each time point prior to enumeration. At each time point, 20 mL of 0.1 M sodium thiosulphate was added into 10 g of each treated feed sample in a sterile bag. The mixture was mixed well and left to stand for 10 minutes. After 10 minutes, 70 mL of BPW was added to achieve 10^−1 dilution. The feed suspension was homogenously mixed and left to stand for 30 minutes. Subsequently, the feed suspension was serial diluted to appropriate dilutions for enumeration. 100 uL of the diluted samples were plated onto Violet Red Bile Glucose (VRBG; CM0485 from Oxoid) agar, prepared as per recommended by the supplier. An aliquot of 0.1 mL of the feed suspension was plated onto the agar at each dilution and incubated at 37° C. for 18-24 hours prior to enumeration. Plating was carried out in triplicates. If low TEC is expected, the sample size is increased to 1 mL by plating 300, 300 and 400 uL onto three plates in triplicates for lower detection limit (10 CFU/g). The diluted feed samples (at 10^−1 dilution factor) were kept at 37° C. for 18-24 hours for enrichment prior to streaking. A loopful of diluted feed suspension was streaked onto the VRBG agar and incubated at 37° C. for 18-24 hours to determine qualitatively the presence of Enterobacteriaceae for samples with undetectable TEC.

[2] = tested on: Salmonella enteriditis ATCC 13076; test: DNA interaction Assay 2: treatment added to cells followed by extraction; type: cell-based; conditions: 1 kg/T; two hours at 37° C.; n = 3
Protocol: Method (Assay 1: Treatment added to extracted DNA directly). One mL of cell suspension (ca. 10^8 cfu/mL in TSBYE) was harvested by centrifugation at 5000 rcf for 10 minutes. The supernatant was discarded and resuspended as detailed in the protocol provided by the supplier. DNA was extracted using the QIAamp DNA Mini kit (Cat #51304, Qiagen). The samples were incubated at 56° C. for two hours and eluted with 200 uL of nuclease-free water. The same eluent was run through the column twice to increase the DNA concentration. Extracted DNA was quantified using Quant-iT dsDNA high-sensitivity assay kit (Q33120; Thermo Fischer Scientific). Extracted DNA was subsequently treated with the different treatment groups with a final concentration of 1 kg/T (prepared in 10 mM PBS). 1.5 uL of treatment solution (prepared at 10 times higher concentration) is added to 13.5 uL of extracted DNA. The solution was mixed well and left to stand at room temperature for one hour. After one hour, the solution was diluted with nuclease-free water 10 times. DNA was subsequently quantified using Quant-iT dsDNA high-sensitivity assay kit (Q33120; Thermo Fischer Scientific). Method (Assay 2: Treatment added to cells followed by extraction). […] Extracted DNA was quantified using Quant-iT dsDNA high-sensitivity assay kit (Q33120; Thermo Fischer Scientific). […]

Q: What does the source list for `CCC(=O)OO` [Perpropionic acid, perpropionic acid]?
A: TEC ([1]; 2.5 kg/ton, post treatment Day 1): 2.41 log CFU/g; TEC ([1]; 2.5 kg/ton, post treatment Day 22): <1.00 log CFU/g; TEC ([1]; 2.5 kg/ton, pre-treatment Day 0): 2.12 log CFU/g; TEC ([1]; 5.0 kg/ton, post treatment Day 1): 2.47 log CFU/g; TEC ([1]; 5.0 kg/ton, post treatment Day 22): 1.73 log CFU/g; TEC ([1]; 5.0 kg/ton, pre-treatment Day 0): <2.00 log CFU/g; TEC ([1]; 10.0 kg/ton, post treatment Day 1): 2.19 log CFU/g; TEC ([1]; 10.0 kg/ton, post treatment Day 22): <1.00 log CFU/g; TEC ([1]; 10.0 kg/ton, pre-treatment Day 0): <2.00 log CFU/g; DNA concentration, Average ± SD, Assay 2 [2]: 34.97 ± 4.54^a ng/uL
